The source of these data is patent US20240294491A1, “SALT OF HETEROCYCLIC COMPOUND WITH ANTI-MALARIA ACTIVITY, AND CRYSTALS THEREOF” (priority 2021, published 2024).

The subject of test [1] is 3D7 strain of Plasmodium falciparum (drug-sensitive strain). Nature of the test: in vitro antimalarial activity, p-LDH colorimetric protozoan growth assay, 3D7 strain. The conditions noted are these: 72 hours culture, p-LDH colorimetry, read-out: 50% protozoan-growth-inhibitory concentration (IC50 value). The test is classed as cell-based. The procedure: (§1) With use of 3D7 and K1 strains, which are a drug-sensitive strain and drug-resistant strain of Plasmodium falciparum, respectively, provided by The Tropical Disease Research Center, Kitasato University, the in vitro antimalarial activity of the compound for these plasmodia was determined. In culture of the test protozoan parasites, maintenance and subculture were performed with a partially modified version of a method by Trager and Jensen (Trager, W and Jensen, J.: Human malaria parasites in continuous culture, Science, 193:673-677, (1976)), and the resultants were used. […]
(§2) The protozoan infection rate was maintained within the range of 0.25 to 10%. Drug sensitivity test was carried out with a modified version of a method by Desjardins et al. (Desjardins, R. E., Canfield, C. J., Haynes, D. E. and Chulay, J. D.: Quantitative assessment of antimalarial activity in vitro by a semiautomated microdilution technique. Antimicrob. Agents Chemother., 16:710-718 (1979)). […] Blue formazan, a product generated through the reaction, was detected by measuring absorbance at a measurement wavelength of 660 nm by using a microplate reader to determine the presence or absence of protozoan growth by colorimetry. […]

Test [2] deals with K1 strain of Plasmodium falciparum (drug-resistant strain). Nature of the test: in vitro antimalarial activity, p-LDH colorimetric protozoan growth assay, K1 strain. In kind it is cell-based. The conditions noted are these: K1, 72 h, read-out: 50% protozoan-growth-inhibitory concentration (IC50 value). The procedure: as §1, §2
The test system of test [3] is Pf3D7^0087N9 strain of Plasmodium falciparum. Nature of the test: drug efficacy evaluation with a humanized mouse malaria model. In kind it is in vivo. The conditions noted are these: humanized NSG mice, oral once per day for 3 days, treatment initiated 72 hours after infection, infection rate by flow cytometry. The procedure:
The following drug efficacy evaluation with a humanized mouse malaria model was carried out by The Art of Discovery S. L. (Vizcaya, Spain) with use of compound (I). In short, erythrocytes infected with Plasmodium falciparum were intravenously inoculated into mice with transplanted human erythrocytes, and drug treatment was initiated after the lapse of 72 hours. The therapeutic effect in terms of infection rates was evaluated by determining the proportion of infected erythrocytes in peripheral blood.
Used in the present test was a Pf3D7^0087N9 strain of Plasmodium falciparum, which was produced according to study described in Reference (1) shown below. Human erythrocytes were transplanted into female NSG (NOD-scid IL-2Rγnull) immunodeficient mice, and the proportion of human erythrocytes in all the erythrocytes in peripheral blood was maintained to be 40% or more throughout the test period. […] Specifically, 2 μL of peripheral blood collected from an infected mouse was stained with TER-119-Phycoeruthrine (mouse erythrocyte marker) and SYTO-16 (dye for nucleic acid staining), and analyzed by flow cytometry. […] 2008 May 21; 3(5):e2252. • (2) Jimenez-Diaz et al. Quantitative measurement of Plasmodium-infected erythrocytes in murine models of malaria by flow cytometry using bidimensional assessment of SYTO-16 fluorescence. […]
For orientation: A flow cytometer gives signals particle by particle.

Values joined by “and” are separate entries in the source; they are usually repeats but may differ in a detail not shown here. Identical values can stand only once.

Consider `C[C@@H](Oc1ccc(CNC(=O)c2cc(-n3cnc(C(F)(F)F)n3)c(N)nc2N)cc1)C(F)(F)F` [compound (I), 2,6-diamino-5-[3-(trifluoromethyl)-1H-1,2,4-triazol-1-yl]-N-(4-{[(2R)-1,1,1-trifluoropropan-2-yl]oxy}benzyl)pyridine-3-carboxamide], for which the IC50 in test [1] is 0.026 µg/mL and 53 nM; in test [2], 0.043 µg/mL and 89 nM. Moreover, the “ED90 (daily dose with which the infection rate on day 7 after the infection decreased by 90% from that in a nontreatment group)” value in test [3] is recorded as 3.2 mg/kg/day.
